ChEMBL document CHEMBL4052779, “Isosorbide-based peptidomimetics as inhibitors of hepatitis C virus serine protease” (Bioorg Med Chem Lett, 2017)
pIC50: −log10 of the molar value.

Columns and labels:
[1] = Solubility of the compound in aqueous buffer; format: physicochemical
[2] = system: Hepacivirus hominis; assay: Inhibition of recombinant HCV NS3/4A protease at 100 uM pre-incubated for 10 mins followed by 5-FAM/QXL520 substrate addition and measured after 60 mins by FRET analysis relative to control
[3] = Inhibition of recombinant HCV NS3/4A protease pre-incubated for 10 mins followed by 5-FAM/QXL520 substrate addition and measured after 60 mins by FRET analysis relative to control; parameters: species or system Hepacivirus hominis
[4] = system: Hepacivirus hominis; assay: Inhibition of recombinant wild type HCV NS3/4A protease assessed as residual enzyme activity at 100 uM pre-incubated for 10 mins followed by 5-FAM/QXL520 substrate addition and measured after 60 mins by FRET analysis relative to control
[5] = system: Hepatitis C virus serine protease, NS3/NS4A (Hepatitis C virus), D2K2A8+A3EZI9 [D168A]; assay: Inhibition of recombinant HCV NS3/4A protease D168A mutant assessed as residual enzyme activity at 100 uM pre-incubated for 10 mins followed by 5-FAM/QXL520 substrate addition and measured after 60 mins by FRET analysis relative to control; settings: Hepacivirus hominis
[6] = system: Hepacivirus hominis; assay: Inhibition of recombinant HCV NS3/4A protease V170A mutant assessed as residual enzyme activity at 100 uM pre-incubated for 10 mins followed by 5-FAM/QXL520 substrate addition and measured after 60 mins by FRET analysis relative to control

Row | solubility [1] | inhibition [2] [%] | SMILES | other results
1 | Insoluble |  | CC(C)(C)OC(=O)N[C@@H](CCCN/C(=N\C(=O)OCc1ccccc1)NC(=O)OCc1ccccc1)C(=O)N[C@H]1CO[C@H]2[C@@H]1OC[C@@H]2OCc1ccccc1 | 
2 | Insoluble |  | CC(C)(C)OC(=O)N[C@@H](Cc1c[nH]c2ccccc12)C(=O)N[C@H]1CO[C@H]2[C@@H]1OC[C@@H]2OCc1ccccc1 | 
3 | Insoluble |  | CC(C)(C)OC(=O)N1CCC[C@H]1C(=O)N[C@H]1CO[C@H]2[C@@H]1OC[C@@H]2OCc1ccccc1 | 
4 | Insoluble |  | COc1ccc(CO[C@H]2CO[C@H]3[C@@H]2OC[C@@H]3NC(=O)/C(=C/c2cccs2)NC(=O)c2ccccc2)cc1 | 
5 | Insoluble |  | C[C@@H](O)[C@H](NC(=O)OC(C)(C)C)C(=O)N[C@H]1CO[C@H]2[C@@H]1OC[C@@H]2OCc1ccccc1 | 
6 | Soluble | 30.3 | O=C(N[C@H]1CO[C@H]2[C@@H]1OC[C@@H]2OCc1ccccc1)/C(=C/c1cc2ccccc2s1)NC(=O)c1ccccc1 | 
7 | Insoluble | 45 | O=C(N[C@@H]1CO[C@H]2[C@@H]1OC[C@H]2OCc1ccccc1)/C(=C/c1cccs1)NC(=O)c1ccccc1 | 

Row | SMILES | solubility [1] | inhibition [2] [%] | other results
8 | O=C(N[C@H]1CO[C@H]2[C@@H]1OC[C@@H]2OCc1ccccc1)/C(=C/c1ccco1)NC(=O)c1ccccc1 | Soluble | 81.8 | pIC50 [3]: 4.44; Activity [4]: 18.2%; Activity [5]: 36.7%; Activity [6]: 6.7%
